This assay concerns the target 5-hydroxytryptamine receptor 2B (Homo sapiens, UniProt P41595). Nature of the assay: Agonist activity at human 5-HT2B receptor expressed in human Flp-In-293 cells assessed as induction of calcium flux incubated for 1 hr by Fluo-4 direct dye based FLIPR assay.

Chain of 5-hydroxytryptamine receptor 2B (P41595 whole entry): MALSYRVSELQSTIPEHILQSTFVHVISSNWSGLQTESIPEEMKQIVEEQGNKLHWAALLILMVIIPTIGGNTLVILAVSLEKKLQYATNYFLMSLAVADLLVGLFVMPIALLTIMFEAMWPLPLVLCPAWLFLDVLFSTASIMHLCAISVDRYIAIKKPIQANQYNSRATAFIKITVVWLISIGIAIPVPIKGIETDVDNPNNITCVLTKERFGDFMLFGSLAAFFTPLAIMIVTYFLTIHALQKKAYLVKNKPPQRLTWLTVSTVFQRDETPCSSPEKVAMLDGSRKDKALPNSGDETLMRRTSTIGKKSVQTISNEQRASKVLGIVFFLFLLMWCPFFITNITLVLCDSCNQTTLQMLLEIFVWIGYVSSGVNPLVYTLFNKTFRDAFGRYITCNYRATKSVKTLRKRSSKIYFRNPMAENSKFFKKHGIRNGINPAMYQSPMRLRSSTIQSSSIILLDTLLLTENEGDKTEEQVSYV

Regarding `NC[C@H]1C[C@@H]1c1c(OCC2CC2)ccc2occc12`, the EC50 worked out at 339 nM.

The record behind these values is BindingDB's records for doi:10.1021/acs.jmedchem.6b01194 (University of Illinois At Chicago, 2016).
